From patent US20170050957A1, “4-AMINO-6-(HETEROCYCLIC)PICOLINATES AND 6-AMINO-2-(HETEROCYCLIC)PYRIMIDINE-4-CARBOXYLATES AND THEIR USE AS HERBICIDES” (Dow AgroSciences LLC, priority 2013, published 2017)
Read-outs that look alike come from different tables or passages of the source. Blank lines part the entries; values can stand above or below the compound they belong to.

Columns and labels:
[1] = system: Key Grass and Sedge Weeds as well as Grass Crops; assay: Post-emergent Test II herbicidal activity (Table 16); assay type: in vivo; conditions: post-emergence, 336 h, 14 d; for pest or weed control at 35 g/ha: 35 g ai/ha; for pest or weed control at 70 g/ha: 70 g ai/ha; for pest or weed control at 140 g/ha: 140 g ai/ha
Outline: (§1)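 Visual injury rating (0 = none, 100 = complete kill) taken 14 d after treatment, relative to untreated plants. Compounds in acetone/DMSO with crop oil concentrate and Triton X-155 were track-sprayed at 187 L/ha onto seedlings at the first-second true leaf stage.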

[2] = system: Key Broadleaf Weed and Crop Species; assay: Post-emergent Test II herbicidal activity (Table 15); assay type: in vivo; conditions: post-emergence, 336 h, 14 d; for pest or weed control at 35 g/ha: 35 g ai/ha; for pest or weed control at 70 g/ha: 70 g ai/ha; for pest or weed control at 140 g/ha: 140 g ai/ha
Outline: as §1

[3] = Cyperus esculentus, yellow nutsedge (Cyperus esculentus), read-out: Visual Growth Reduction (%) 14 Days After Application, CYPES
[4] = Echinochloa crus-galli, barnyardgrass (Echinochloa crus-galli), read-out: Visual Growth Reduction (%) 14 Days After Application, ECHCG
[5] = Oryza sativa, rice (Oryza sativa), read-out: Visual Growth Reduction (%) 14 Days After Application, ORYSA
[6] = Setaria faberi, giant foxtail (Setaria faberi), read-out: Visual Growth Reduction (%) 14 Days After Application, SETFA
[7] = Triticum aestivum, wheat, spring (Triticum aestivum), read-out: Visual Growth Reduction (%) 14 Days After Application, TRZAS
[8] = Zea mays, maize, corn (Zea mays), read-out: Visual Growth Reduction (%) 14 Days After Application, ZEAMX
[9] = Abutilon theophrasti, velvetleaf (Abutilon theophrasti), read-out: Visual Growth Reduction (%) 14 Days After Application, ABUTH
[10] = Amaranthus retroflexus, redroot pigweed (Amaranthus retroflexus), read-out: Visual Growth Reduction (%) 14 Days After Application, AMARE
[11] = Brassica napus, oilseed rape, canola (Brassica napus), read-out: Visual Growth Reduction (%) 14 Days After Application, BRSNN
[12] = Chenopodium album, lambsquarters (Chenopodium album), read-out: Visual Growth Reduction (%) 14 Days After Application, CHEAL
[13] = Euphorbia heterophylla, wild poinsettia (Euphorbia heterophylla), read-out: Visual Growth Reduction (%) 14 Days After Application, EPHHL
[14] = Helianthus annuus, sunflower (Helianthus annuus), read-out: Visual Growth Reduction (%) 14 Days After Application, HELAN

melting point: 50 to 56 °C
SMILES: COC(=O)c1nc(-c2ccc3sccc3c2)c(Cl)c(N)c1Cl [Compound 3.01, Methyl 4-amino-6-(benzo[b]thiophenyl-5-yl)-3,5-dichloropicolinate]
pest or weed control at 35 g/ha [1, 3]: 0 to 29%
pest or weed control at 70 g/ha [1, 3]: 0 to 29%
pest or weed control at 140 g/ha [1, 3]: 0 to 29%
pest or weed control at 35 g/ha [1, 4]: 0 to 29%
pest or weed control at 70 g/ha [1, 4]: 0 to 29%
pest or weed control at 140 g/ha [1, 4]: 0 to 29%
pest or weed control at 35 g/ha [1, 5]: 0 to 29%
pest or weed control at 70 g/ha [1, 5]: 0 to 29%
pest or weed control at 140 g/ha [1, 5]: 0 to 29%
pest or weed control at 35 g/ha [1, 6]: 0 to 29%
pest or weed control at 70 g/ha [1, 6]: 0 to 29%
pest or weed control at 140 g/ha [1, 6]: 0 to 29%
pest or weed control at 35 g/ha [1, 7]: 0 to 29%
pest or weed control at 70 g/ha [1, 7]: 0 to 29%
pest or weed control at 140 g/ha [1, 7]: 0 to 29%
pest or weed control at 35 g/ha [1, 8]: 0 to 29%
pest or weed control at 70 g/ha [1, 8]: 45 to 59%
pest or weed control at 140 g/ha [1, 8]: 60 to 74%
pest or weed control at 35 g/ha [2, 9]: 60 to 74%
pest or weed control at 70 g/ha [2, 9]: 60 to 74%
pest or weed control at 140 g/ha [2, 9]: 75 to 84%
pest or weed control at 35 g/ha [2, 10]: 85 to 94%
pest or weed control at 70 g/ha [2, 10]: 95 to 100%
pest or weed control at 140 g/ha [2, 10]: 95 to 100%
pest or weed control at 35 g/ha [2, 11]: 0 to 29%
pest or weed control at 70 g/ha [2, 11]: 0 to 29%
pest or weed control at 140 g/ha [2, 11]: 0 to 29%
pest or weed control at 35 g/ha [2, 12]: 95 to 100%
pest or weed control at 70 g/ha [2, 12]: 95 to 100%
pest or weed control at 140 g/ha [2, 12]: 95 to 100%
pest or weed control at 35 g/ha [2, 13]: 0 to 29%
pest or weed control at 70 g/ha [2, 13]: 0 to 29%
pest or weed control at 140 g/ha [2, 13]: 0 to 29%
pest or weed control at 35 g/ha [2, 14]: 75 to 84%
pest or weed control at 70 g/ha [2, 14]: 75 to 84%
pest or weed control at 140 g/ha [2, 14]: 85 to 94%

melting point: 151 °C
SMILES: COC(=O)c1nc(-c2ccc3ccoc3c2F)c(F)c(N)c1Cl [Compound 2.09]
pest or weed control at 35 g/ha [1, 3]: 0 to 29%
pest or weed control at 70 g/ha [1, 3]: 0 to 29%
pest or weed control at 140 g/ha [1, 3]: 0 to 29%
pest or weed control at 35 g/ha [1, 4]: 60 to 74%
pest or weed control at 70 g/ha [1, 4]: 85 to 94%
pest or weed control at 140 g/ha [1, 4]: 85 to 94%
pest or weed control at 35 g/ha [1, 5]: 0 to 29%
pest or weed control at 70 g/ha [1, 5]: 30 to 44%
pest or weed control at 140 g/ha [1, 5]: 30 to 44%
pest or weed control at 35 g/ha [1, 6]: 45 to 59%
pest or weed control at 70 g/ha [1, 6]: 60 to 74%
pest or weed control at 140 g/ha [1, 6]: 60 to 74%
pest or weed control at 35 g/ha [1, 7]: 0 to 29%
pest or weed control at 70 g/ha [1, 7]: 0 to 29%
pest or weed control at 140 g/ha [1, 7]: 0 to 29%
pest or weed control at 35 g/ha [1, 8]: 45 to 59%
pest or weed control at 70 g/ha [1, 8]: 60 to 74%
pest or weed control at 140 g/ha [1, 8]: 60 to 74%
pest or weed control at 35 g/ha [2, 9]: 85 to 94%
pest or weed control at 70 g/ha [2, 9]: 85 to 94%
pest or weed control at 140 g/ha [2, 9]: 85 to 94%
pest or weed control at 35 g/ha [2, 10]: 85 to 94%
pest or weed control at 70 g/ha [2, 10]: 95 to 100%
pest or weed control at 140 g/ha [2, 10]: 95 to 100%
pest or weed control at 35 g/ha [2, 11]: 60 to 74%
pest or weed control at 70 g/ha [2, 11]: 75 to 84%
pest or weed control at 140 g/ha [2, 11]: 85 to 94%
pest or weed control at 35 g/ha [2, 12]: 95 to 100%
pest or weed control at 70 g/ha [2, 12]: 95 to 100%
pest or weed control at 140 g/ha [2, 12]: 95 to 100%
pest or weed control at 35 g/ha [2, 13]: 95 to 100%
pest or weed control at 70 g/ha [2, 13]: 95 to 100%
pest or weed control at 140 g/ha [2, 13]: 95 to 100%
pest or weed control at 35 g/ha [2, 14]: 60 to 74%
pest or weed control at 70 g/ha [2, 14]: 75 to 84%
pest or weed control at 140 g/ha [2, 14]: 85 to 94%
